Assay results reported in patent US9416115B2, “Fused heterocyclic compounds as ion channel modulators” (Gilead Sciences, Inc., priority 2013, dated 2016).

Legend:
[1] = tested on: Ischemia-Induced ST Segment Elevation in Anesthetized Rabbits; test: Ischemia-induced ST segment elevation in anesthetized rabbits; assay type: in vivo, New Zealand rabbits; conditions: iv infusion; 15 min LAD ischemia after 30 min of compound administration
Experimental: This study was undertaken to determine the anti-ischemic effects of compounds of the present disclosure in an in vivo rabbit model.
Female New Zealand rabbits (3.0-4.0 kg) were purchased from Western Oregon Rabbitry. Animals were housed on a 12-h light and dark cycle and received standard laboratory chow and water. All experiments were performed in accordance with the Guide for the Care and Use of Laboratory Animals published by The National Research Council and with the experimental protocol approved by the Institutional Animal Care Committee of Gilead Sciences, Inc.
(§1) Rabbits were anesthetized with ketamine (35 mg/kg) and xylazine (5 mg/kg) intramuscular injection (im). A tracheotomy was performed and the trachea was intubated with an endotracheal tube. The animal was ventilated with room air supplemented with oxygen using a pressure control animal ventilator (Kent Scientific Corp., Torrington, Conn.) at a respiratory rate of 40 strokes/min and peak inspiration pressure of 10 mmH2O, which was adjusted to keep blood gases and pH within the physiological range (iSTAT clinic analyzer, Heska Corp.; Waukesha, Wis.). The left femoral artery was cannulated for the measurement of blood pressure (BP). Blood samples were also withdrawn from femoral artery. The right external jugular vein was cannulated for drug/vehicle administration. Needle electrodes were inserted subcutaneously into the limbs for recording of the surface electrocardiogram (ECG).
The heart was exposed via an incision in the 4th intercostal space (4th and/or 5th ribs were cut for a clear surgical vision). The chest was opened and a pericardial cradle was formed using 4 retractors. A coronary artery occluder, comprised of a snare made of 5 cm PE-10 tubing with a 6-0 Prolene polypropylene suture in it, was placed loosely around the left anterior descending artery (LAD) at its origin. Two unipolar electrodes, made with teflon coated silver wire attached to a small patch of filter paper, were attached on the surface of the ischemic and normal regions of the left ventricle to record epicardial electrocardiogram.
(§2) Reference electrodes were placed in the open incision of the neck. The body temperature of the animal was monitored via a rectal thermometer and maintained at 37-40° C. by adjusting the surface temperature of the surgical table. Regional ischemia (15 min) was induced by ligating the LAD followed by 15 min of reperfusion caused by releasing the ligation. The heart was excised at the end of the experiment and the LAD was re-ligated. The ischemic area was visualized by perfusing the heart with 1% Evans blue in saline and calculated as a percentage of total ventricular weight. Rabbits with ischemic area less than 10% or larger than 25% were excluded from the analysis. Animals were randomly assigned to vehicle and test compound groups. Test compounds were dissolved in 15% NMP, 10% Solutol and 75% de-ionized water (dH2O). Test compounds were given as an iv infusion at a rate targeted to reach plasma concentrations of 1 μM. After 30 min of compound administration the heart was subjected to 15 min of ischemia followed by 15 min of reperfusion.

hNav1.3 (SCN3A) = biological target: T1, hNav1.3 (SCN3A) (Homo sapiens, UniProt Q9NY46); test: Voltage-dependent inhibition of the Nav1.3 sodium channel; assay type: cell-based; conditions: voltage-dependent block of peak current, read-out: Nav 1.3-VDB 1 uM
T1 construct: expressed in transfected cells
Experimental: HEK-293 cells stably expressing wild-type (WT) hNav1.3 (SCN3A NCBI # NP 001075, SCN1B NCBI # NM 001037.4, SCN2B NCBI # NM 004588.2) were used to record INa. Cells are maintained with standard tissue culture procedures and stable channel expression is maintained with 800 ug/mL G418 and 3 ug/mL Puromycin in the culture medium. Unless otherwise noted, all reagents are purchased from Sigma-Aldrich (St Louis, Mo., U.S.A.).
Assays measuring Voltage-Dependent Block (VDB) of Nav1.3 are performed on an automated electrophysiology platform, QPatch 16X or QPatch HT (Sophion Bioscience, Copenhagen, Denmark), using the whole cell patch clamp technique to measure currents through the cell membrane. Series resistance compensation is set to 100% and series resistance and whole-cell compensation are performed automatically. Currents stored in the Sophion Bioscience Oracle database (Sophion Bioscience, Copenhagen, Denmark). Analysis is performed using QPatch Assay software and data are compiled in Excel 2010 (Microsoft, Seattle, Wash., U.S.A.).
The internal (pipette) solution consists of (in mM) 105 CsF, 10 NaF, 20 CsCl, 2 EGTA, 10 HEPES, 10 Dextrose with a pH of 7.35 and osmolarity of 300 mOsmol/kg. The external (bath) solution contains in (mM): 80 NaCl, 60 Choline-Cl, 4 KCl, 1.8 CaCl2, 1 MgCl2, 10 dextrose, 10 HEPES, with a pH of 7.35 and osmolarity of 310 mOsmol/kg. Experiments are carried out at 23-25° C.
Compound stocks are routinely made by the Gilead Sample Bank in vials to 10 mM in dimethyl sulfoxide (DMSO). In some cases, when compounds are not soluble in DMSO, they are made in 100% ethanol. Stocks are sonicated as necessary. Compounds are diluted in extracellular solution using a MicroLab Nimbus (Hamilton Robotics, Reno, Nev.) to 1 μM in glass vials and transferred to glass well plates before robotic addition to the cells.
Cells are allowed to stabilize for 10 min after establishment of the whole-cell configuration before current is measured. The test compound is applied 3 times at 120 second intervals to allow for equilibration. Currents were leak subtracted using a P/4 procedure, low-pass Bessel filtered at 5 kHz and digitized at 25 kHz. Results are presented as mean percentage inhibition.
Voltage-dependent block of Nav1.3 peak current was measured during a voltage step to 0 mV (20 ms) following a voltage step pre-conditioning steps (−55 mV for 10 sec followed by −120 mV for 10 ms). The holding potential was −120 mV and this voltage protocol induces half maximal inactivation of Nav1.3. The voltage protocol for VDB was performed every 45 seconds in the absence and presence of compound and percentage inhibition was calculated with respect to the compound free condition.

[2] = Plasma concentration in the rabbit ischemia study; assay type: in vivo, New Zealand rabbits; conditions: iv infusion targeted to 1 uM plasma
Experimental: as §1, §2

T1 sequence (Q9NY46 1-1951 isoform Q9NY46-2): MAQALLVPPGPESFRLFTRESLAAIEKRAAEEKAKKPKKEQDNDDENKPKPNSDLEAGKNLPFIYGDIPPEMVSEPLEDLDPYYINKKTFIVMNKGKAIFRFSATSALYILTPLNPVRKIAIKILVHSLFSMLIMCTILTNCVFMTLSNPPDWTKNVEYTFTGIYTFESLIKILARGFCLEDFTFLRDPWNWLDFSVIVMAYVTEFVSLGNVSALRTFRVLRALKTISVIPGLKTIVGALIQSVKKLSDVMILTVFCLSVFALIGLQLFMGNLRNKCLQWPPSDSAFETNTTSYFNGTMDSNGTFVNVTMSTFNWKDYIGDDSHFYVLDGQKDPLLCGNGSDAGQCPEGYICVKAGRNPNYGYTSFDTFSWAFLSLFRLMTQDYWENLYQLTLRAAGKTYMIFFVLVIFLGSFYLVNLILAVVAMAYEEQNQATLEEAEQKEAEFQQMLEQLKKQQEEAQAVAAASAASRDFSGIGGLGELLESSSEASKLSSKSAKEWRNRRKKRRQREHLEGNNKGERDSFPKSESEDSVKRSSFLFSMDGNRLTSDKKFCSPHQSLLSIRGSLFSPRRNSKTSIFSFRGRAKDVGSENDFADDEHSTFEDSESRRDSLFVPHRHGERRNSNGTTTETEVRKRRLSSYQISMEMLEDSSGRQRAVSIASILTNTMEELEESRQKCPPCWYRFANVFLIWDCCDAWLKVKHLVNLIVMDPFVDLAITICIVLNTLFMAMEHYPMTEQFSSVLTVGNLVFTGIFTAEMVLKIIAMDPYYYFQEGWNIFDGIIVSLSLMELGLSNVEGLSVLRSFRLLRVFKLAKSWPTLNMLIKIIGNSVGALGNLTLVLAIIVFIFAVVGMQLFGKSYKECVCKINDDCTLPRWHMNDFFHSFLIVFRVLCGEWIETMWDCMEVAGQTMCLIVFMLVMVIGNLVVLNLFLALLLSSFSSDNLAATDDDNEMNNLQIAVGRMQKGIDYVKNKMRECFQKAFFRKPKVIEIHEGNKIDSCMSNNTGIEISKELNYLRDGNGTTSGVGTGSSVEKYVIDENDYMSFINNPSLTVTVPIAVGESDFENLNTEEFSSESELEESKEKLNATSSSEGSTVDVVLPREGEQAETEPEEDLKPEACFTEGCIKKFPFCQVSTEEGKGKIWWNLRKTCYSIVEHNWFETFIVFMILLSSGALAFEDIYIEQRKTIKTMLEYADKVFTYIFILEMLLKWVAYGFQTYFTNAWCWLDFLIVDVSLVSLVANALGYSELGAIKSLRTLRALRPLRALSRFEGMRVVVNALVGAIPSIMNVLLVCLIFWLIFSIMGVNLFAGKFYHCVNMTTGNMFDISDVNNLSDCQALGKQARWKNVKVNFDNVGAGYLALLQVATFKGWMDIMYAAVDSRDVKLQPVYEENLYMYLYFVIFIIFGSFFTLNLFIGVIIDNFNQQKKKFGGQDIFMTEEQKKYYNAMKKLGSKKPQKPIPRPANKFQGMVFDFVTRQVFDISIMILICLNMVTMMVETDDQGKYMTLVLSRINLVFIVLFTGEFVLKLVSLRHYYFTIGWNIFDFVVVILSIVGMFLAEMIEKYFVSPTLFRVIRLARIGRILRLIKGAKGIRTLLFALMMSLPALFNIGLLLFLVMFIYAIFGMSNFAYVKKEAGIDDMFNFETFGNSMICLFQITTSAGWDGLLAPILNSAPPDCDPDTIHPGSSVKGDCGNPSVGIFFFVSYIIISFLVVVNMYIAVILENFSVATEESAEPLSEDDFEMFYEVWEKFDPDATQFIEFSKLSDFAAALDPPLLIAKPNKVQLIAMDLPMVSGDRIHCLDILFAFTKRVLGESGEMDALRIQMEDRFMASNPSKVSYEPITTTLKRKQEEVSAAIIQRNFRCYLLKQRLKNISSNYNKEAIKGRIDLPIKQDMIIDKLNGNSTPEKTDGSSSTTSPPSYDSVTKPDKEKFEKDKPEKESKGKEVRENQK
T1 sequence (Q07699 19-218 partner): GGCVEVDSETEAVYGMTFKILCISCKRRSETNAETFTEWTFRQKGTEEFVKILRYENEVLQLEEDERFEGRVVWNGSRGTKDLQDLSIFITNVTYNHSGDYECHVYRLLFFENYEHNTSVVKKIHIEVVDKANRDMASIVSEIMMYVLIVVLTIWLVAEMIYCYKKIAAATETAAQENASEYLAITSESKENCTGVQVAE
T1 sequence (O60939 30-215 partner): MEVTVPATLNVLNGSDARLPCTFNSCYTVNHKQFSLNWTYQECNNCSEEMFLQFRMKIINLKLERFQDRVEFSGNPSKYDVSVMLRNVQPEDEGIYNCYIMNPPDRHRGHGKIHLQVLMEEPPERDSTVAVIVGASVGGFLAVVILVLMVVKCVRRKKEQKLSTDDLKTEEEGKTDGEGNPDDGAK

SMILES	Rabbit ST Segment (Percent reduction) [1]	inhibition at 1 µM (hNav1.3 (SCN3A))	Plasma concentration [2]
Cc1ccnc(COc2noc3ccc(-c4ccc(OC(F)(F)F)cc4)cc23)n1 [Example 5, 3-((4-methylpyrimidin-2-yl)methoxy)-5-(4-(trifluoromethoxy)phenyl)benzo[d]isoxazole]	0 Percent reduction	13.9%	1400 nM
FC(F)(F)Oc1ccc(-c2ccc3onc(OCCn4cncn4)c3c2)cc1 [Example 58, 3-(2-(1H-1,2,4-triazol-1-yl)ethoxy)-5-(4-(trifluoromethoxy)phenyl)benzo[d]isoxazole]	14 Percent reduction	–	1300 nM
O=C1CCCN1CCOc1noc2ccc(-c3ccc(OC(F)(F)F)cc3)cc12 [Example 59, 1-(2-((5-(4-(trifluoromethoxy)phenyl)benzo[d]isoxazol-3-yl)oxy)ethyl)pyrrolidin-2-one]	23 Percent reduction	14.5%	1300 nM
Fc1cc(-c2ccc3onc(OCc4ncccn4)c3c2)ccc1Cl [Example 8, 5-(4-chloro-3-fluorophenyl)-3-(pyrimidin-2-ylmethoxy)benzo[d]isoxazole]	–	6.4%	–
Cc1cc(-c2ccc3onc(OCc4ncccn4)c3c2)ccc1OC(F)(F)F [Example 7, 5-(3-methyl-4-(trifluoromethoxy)phenyl)-3-(pyrimidin-2-ylmethoxy)benzo[d]isoxazole]	–	< 5%	–
CC(COc1noc2ccc(-c3ccc(OC(F)(F)F)cc3)cc12)n1cccn1 (stereo not shown) [Example 68, 3-(2-(1H-pyrazol-1-yl)propoxy)-5-(4-(trifluoromethoxy)phenyl)benzo[d]isoxazole]	–	27.1%	–
Cc1nnc(COc2noc3ccc(-c4ccc(OC(F)(F)F)cc4)cc23)o1 [Example 99, 3-((5-methyl-1,3,4-oxadiazol-2-yl)methoxy)-5-(4-(trifluoromethoxy)phenyl)benzo[d]isoxazole]	–	41.4%	–
FC(F)(F)Oc1ccc(-c2ccc3onc(OCc4ncccn4)c3c2)cc1 [Example 1, 3-(pyrimidin-2-ylmethoxy)-5-(4-(trifluoromethoxy)phenyl)benzo[d]isoxazole]	32 Percent reduction	–	1000 nM
FC(F)(F)Oc1cccc(-c2ccc3onc(OCc4ncccn4)c3c2)c1 [Example 10, 3-(pyrimidin-2-ylmethoxy)-5-(3-(trifluoromethoxy)phenyl)benzo[d]isoxazole]	–	8.5%	–
COc1cc(-c2ccc(OC(F)(F)F)cc2)cc2c(OCc3ncccn3)noc12 [Example 22, 7-methoxy-3-(pyrimidin-2-ylmethoxy)-5-(4-(trifluoromethoxy)phenyl)benzo[d]isoxazole]	–	17.3%	–
FC(F)(F)Oc1ccc(-c2ccc3onc(OCc4nnc(C5CC5)o4)c3c2)cc1 [Example 96, 3-((5-cyclopropyl-1,3,4-oxadiazol-2-yl)methoxy)-5-(4-(trifluoromethoxy)phenyl)benzo[d]isoxazole]	46 Percent reduction	–	1000 nM
Fc1cc(C(F)(F)F)ccc1-c1ccc2onc(OCc3ncccn3)c2c1 [Example 6, 5-(2-fluoro-4-(trifluoromethyl)phenyl)-3-(pyrimidin-2-ylmethoxy)benzo[d]isoxazole]	0 Percent reduction	< 5%	800 nM
COc1cc(OC(F)(F)F)ccc1-c1ccc2onc(OCc3ncccn3)c2c1 [Example 4, 5-(2-methoxy-4-(trifluoromethoxy)phenyl)-3-(pyrimidin-2-ylmethoxy)benzo[d]isoxazole]	–	12.2%	–
